# Source: paper PMC10057977, “Use of In Vivo Imaging and Physiologically-Based Kinetic Modelling to Predict Hepatic Transporter Mediated Drug–Drug Interactions in Rats” (Pharmaceutics, 2023)
# Assay: Compartmental pharmacokinetic models of test drugs fitted to published rat data
# From the text: For all the selected drugs, compartmental pharmacokinetic models were developed to inform dose selection in the DCE-MRI studies. The one-compartment, two-compartment, or three-compartment pharmacokinetic models, following intravenous and oral administration, were fitted to published pharmacokinetic data for these drugs in rats. The models assumed linear pharmacokinetics of the six drugs investigated, to allow identification of the model parameters with the limited available rat pharmacokinetic data. […] The model equations, sources of pharmacokinetic data, parameters estimates, and criteria for the dose selection for all the drugs are reported in the Supplementary Material, Section S1. […]
# The University of Manchester, Manchester M13 9PL, UK […]
# S1. Pharmacokinetic models for test compounds
# Pharmacokinetic models were developed for selected test compounds to inform dose selection in the dynamic contrast enhanced magnetic resonance imaging (DCE-MRI) studies, as described below. The one-compartment (Eq. S1–
# Eq. S2), two-compartment (Eq. S3–Eq. S5), or three-compartment pharmacokinetic model (Eq. S6 –Eq. S9), following intravenous (IV) and oral administration, was fitted to available pharmacokinetic data in rat (Table S1). The precision of the parameter estimates (% coefficient of variation; CV) was calculated as described previously. […]
# dA1(t) = R + k ∙A (t) − k ∙A (t) for 0 < t < Tinf […]
# dA1(t)= ka ∙AG(t) − k10 ∙ A1(t) for t > Tinf S1 […]
# dA1(t) = R + k ∙A (t) − (k + k )A (t) + k ∙A (t) for 0 < t < Tinf […]
# dA1(t) = k ∙A (t) − (k + k )A (t) + k ∙ A (t) for t > Tinf
# dA2(t)= k A (t) − k A (t) S4
# dA1(t) = Rinf − (k10 + k12 + k13)A1(t) + k21 ∙ A2(t) + k31 ∙ A3(t) for 0 < t < Tinf […]
# dA1(t) = −(k + k + k )A (t) + k ∙ A (t) + k ∙ A (t) for t > Tinf
# dA2(t) = k A (t) − k A (t) S7
# dA3(t) = k A (t) − k A (t) S8
# Initial conditions for oral dose and IV bolus (Rinf=0):
# • Oral dose: AG(0) = dose ∙F, all the other compartments equal to 0;
# • IV bolus: A1(0) = dose, all the other compartments equal to 0.
# Where t is time, An(t) is amount in compartment n at time t; Rinf is IV infusion rate; Tinf is the duration of IV infusion; ka, k10, k12, k21, k13 and k31 are rate constants; V1 is volume of compartment 1; F is oral bioavailability; and Y is the meas-ured drug concentration in plasma or blood.
# These models assume linear kinetics of the test compounds, despite known non-linearity in pharmacokinetics for […]
# The assumption of linear kinetics allowed simplification of the modelling exercise and enabled identification of the model parameters with the available pharmacokinetic data. The models were used to simulate test compound concentrations in plasma under different dosing schedules, to determine suitable doses for in vivo DCE-MRI studies.
# [1] = two-compartment model, rat plasma, fitted to published IV data
# [2] = three-compartment model, rat, IV data (ciclosporin: blood; bosentan: plasma, example estimates)
# [3] = one-compartment model, rat, fitted to published PK data
Compound,V1 [1] [mL],k10 [1] [h⁻¹],k12 [1] [h⁻¹],k21 [1] [h⁻¹],V1 [3] [mL],other results
C=C[C@@H]1C[C@]1(NC(=O)[C@@H]1C[C@@H](Oc2ncc(OC)c3ccc(Cl)cc23)CN1C(=O)[C@@H](NC(=O)OC(C)(C)C)C(C)(C)C)C(=O)NS(=O)(=O)C1CC1 [Asunaprevir],96.0,6.79,3.71,1.60,,
COc1ccccc1Oc1c(NS(=O)(=O)c2ccc(C(C)(C)C)cc2)nc(-c2ncccn2)nc1OCCO [Bosentan],32,5.0,3.8,3.5,,"k10 (three-compartment model, rat, IV data (ciclosporin: blood; bosentan: plasma, example estimates highly sensitive to initial estimates)): 5.1 h⁻¹; K31 [2]: 0.13 h⁻¹; V1 [2]: 26 mL; k12 [2]: 6.1 h⁻¹; k13 [2]: 0.90 h⁻¹; k21 [2]: 4.3 h⁻¹"
CCc1ccc(CCOc2ccc(CC3SC(=O)NC3=O)cc2)nc1 (stereo not drawn) [Pioglitazone],,,,,88,"F (oral bioavailability, one-compartment model, rat): 0.66"
CO[C@H]1/C=C/O[C@@]2(C)Oc3c(C)c(O)c4c(O)c(c(/C=N/N5CCN(C)CC5)c(O)c4c3C2=O)NC(=O)/C(C)=C\C=C\[C@H](C)[C@H](O)[C@@H](C)[C@@H](O)[C@@H](C)[C@H](OC(C)=O)[C@@H]1C [Rifampicin],,,,,182.1,k10 [3]: 0.294 h⁻¹
